Assay results: patent publication US20110045101A1, “FUNGICIDAL SUBSTITUTED AZOLES” (E.I. Du Pont De Nemours and Company, priority 2009, published 2011)
Marks after values point to notes of the source that are not given here.

How the values were obtained:
Format in all cases: in vivo
Settings in all cases: 100 = 100% disease control
Septoria nodorum = assay: Test F: wheat glume blotch on wheat seedlings, sprayed the day before inoculation, visual disease rating
Summary of the method: (§1)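 200 ppm run-off spray (500 g/ha equivalent); * = 40 ppm. Vehicle: acetone/water 50/50, 250 ppm Trem® 014.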

[1] = tested on: Erysiphe graminis f. sp. tritici; assay: Test J: wheat powdery mildew on wheat seedlings, sprayed the day before inoculation, visual disease rating
Summary of the method: as §1

[2] = tested on: Puccinia recondita f. sp. tritici; assay: Test I: wheat leaf rust on wheat seedlings, sprayed the day before inoculation, visual disease rating
Summary of the method: as §1

Alternaria solani = assay: Test D: tomato early blight, sprayed the day before inoculation, visual disease rating
Summary of the method: as §1

Botrytis cinerea = assay: Test C: tomato Botrytis on tomato seedlings, sprayed the day before inoculation, visual disease rating
Summary of the method: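 Tomato seedlings were sprayed until run-off with test suspensions in acetone/water (50/50) carrying 250 ppm polyhydric alcohol ester surfactant. Standard dose was 200 ppm, with 40 ppm for marked entries.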

Septoria tritici = assay: Test G: wheat leaf blotch on wheat seedlings, sprayed the day before inoculation, visual disease rating
Summary of the method: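 Seedlings receive a protective spray of test suspension in acetone/water carrying 250 ppm surfactant, mostly at 200 ppm and at 40 ppm where marked. They are inoculated the next day, kept saturated at 24° C for 48 h, then held at 20° C for 19 days before visual scoring.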

[3] = 200 ppm, 0 = no control relative to controls
[4] = 40 ppm (marked *), 0 = no control

Cc1cc(-c2cnc(Cl)n2-c2ccc(Cl)cc2)sc1CCl [compound 452]
Test F disease control rating (Septoria nodorum; [3]): 0% | Test J disease control rating [1, 3]: 76% | Test I disease control rating [2, 3]: 86% | Test D disease control rating (Alternaria solani; [3]): 0% | Test C disease control rating (Botrytis cinerea; [3]): 55% | Test G disease control rating (Septoria tritici; [3]): 86%

Fc1ccc(F)c(-c2c(Cl)nc(Br)n2-c2ccc(Cl)cc2)c1Cl [compound 76]
Test F disease control rating (Septoria nodorum; [3]): 60% | Test J disease control rating [1, 3]: 100% | Test I disease control rating [2, 3]: 99% | Test D disease control rating (Alternaria solani; [3]): 99% | Test C disease control rating (Botrytis cinerea; [3]): 37% | Test G disease control rating (Septoria tritici; [3]): 97%

Cc1ncn(-c2ccc(Cl)c(F)c2)c1-c1cccnc1 [compound 252]
Test F disease control rating (Septoria nodorum; 200 ppm, 0 = no control): 0% | Test J disease control rating ([1]; 200 ppm, 0 = no control): 0% | Test I disease control rating ([2]; 200 ppm, 0 = no control): 0% | Test D disease control rating (Alternaria solani; 200 ppm, 0 = no control): 0% | Test C disease control rating (Botrytis cinerea; 200 ppm, 0 = no control): 15% | Test G disease control rating (Septoria tritici; 200 ppm, 0 = no control): 13%

Fc1cc(-n2c(Cl)nc(Cl)c2-c2c(F)cccc2F)ccc1Cl [compound 225]
Test F disease control rating (Septoria nodorum; 200 ppm, 0 = no control): 0% | Test J disease control rating ([1]; 200 ppm, 0 = no control): 100% | Test I disease control rating ([2]; 200 ppm, 0 = no control): 99% | Test D disease control rating (Alternaria solani; 200 ppm, 0 = no control): 100% | Test C disease control rating (Botrytis cinerea; 200 ppm, 0 = no control): 96% | Test G disease control rating (Septoria tritici; 200 ppm, 0 = no control): 98%

Fc1ccc(F)c(-c2c(Cl)nc(Br)n2-c2ccc(Cl)cc2)c1 [compound 85]
Test F disease control rating (Septoria nodorum; [3]): 11% | Test J disease control rating [1, 3]: 100% | Test I disease control rating [2, 3]: 96% | Test D disease control rating (Alternaria solani; [3]): 100% | Test C disease control rating (Botrytis cinerea; [3]): 73% | Test G disease control rating (Septoria tritici; [3]): 98%

Cc1nc(Cl)c(-c2c(F)cccc2F)n1-c1ccc(OC(F)(F)F)cc1 [compound 81]
Test F disease control rating (Septoria nodorum; [3]): 69% | Test J disease control rating [1, 3]: 100% | Test I disease control rating [2, 3]: 98% | Test D disease control rating (Alternaria solani; [3]): 100% | Test C disease control rating (Botrytis cinerea; [3]): 81% | Test G disease control rating (Septoria tritici; [3]): 93%

Fc1cc(F)c(-n2c(Br)nc(Cl)c2-c2ccc(Cl)cc2)c(F)c1 [compound 131]
Test F disease control rating (Septoria nodorum; 40 ppm (marked *)): 0* % | Test J disease control rating ([1]; 40 ppm (marked *)): 48* % | Test I disease control rating ([2]; 40 ppm (marked *)): 0* % | Test D disease control rating (Alternaria solani; 40 ppm (marked *)): 99* % | Test C disease control rating (Botrytis cinerea; 40 ppm (marked *)): 90* % | Test G disease control rating (Septoria tritici; 40 ppm (marked *)): 85* %

Fc1cccc(Cl)c1-c1c(Cl)nc(Br)n1-c1ccc(Cl)cc1 [compound 52]
Test F disease control rating (Septoria nodorum; [3]): 0% | Test J disease control rating [1, 3]: 100% | Test I disease control rating [2, 3]: 99% | Test D disease control rating (Alternaria solani; [3]): 100% | Test C disease control rating (Botrytis cinerea; [3]): 84% | Test G disease control rating (Septoria tritici; [3]): 97%

COc1cc(F)c(-c2c(Cl)nc(I)n2-c2ccc(Cl)cc2)c(F)c1 [compound 245]
Test F disease control rating (Septoria nodorum; 200 ppm, 0 = no control): 100% | Test J disease control rating ([1]; 200 ppm, 0 = no control): 99% | Test I disease control rating ([2]; 200 ppm, 0 = no control): 95% | Test D disease control rating (Alternaria solani; 200 ppm, 0 = no control): 99% | Test C disease control rating (Botrytis cinerea; 200 ppm, 0 = no control): 100% | Test G disease control rating (Septoria tritici; 200 ppm, 0 = no control): 97%

Fc1ccc(F)c(-c2c(Cl)nc(Br)n2-c2ccc(Cl)cc2)c1F [compound 50]
Test F disease control rating (Septoria nodorum; [3]): 100% | Test J disease control rating [1, 3]: 100% | Test I disease control rating [2, 3]: 100% | Test D disease control rating (Alternaria solani; [3]): 100% | Test C disease control rating (Botrytis cinerea; [3]): 98% | Test G disease control rating (Septoria tritici; [3]): 92%

Cc1nc(Cl)c(-c2c(F)cccc2Cl)n1-c1ccc(F)cc1 [compound 189]
Test F disease control rating (Septoria nodorum; 200 ppm, 0 = no control): 51% | Test J disease control rating ([1]; 200 ppm, 0 = no control): 99% | Test I disease control rating ([2]; 200 ppm, 0 = no control): 100% | Test D disease control rating (Alternaria solani; 200 ppm, 0 = no control): 100% | Test C disease control rating (Botrytis cinerea; 200 ppm, 0 = no control): 98% | Test G disease control rating (Septoria tritici; 200 ppm, 0 = no control): 97%

Cc1nc(Cl)c(-c2c(F)cccc2F)n1Cc1ccc(Cl)cc1 [compound 128]
Test F disease control rating (Septoria nodorum; [3]): 96% | Test J disease control rating [1, 3]: 100% | Test I disease control rating [2, 3]: 97% | Test D disease control rating (Alternaria solani; [3]): 96% | Test C disease control rating (Botrytis cinerea; [3]): 97% | Test G disease control rating (Septoria tritici; [3]): 93%

Cc1nc(Cl)c(-c2c(F)ccc(Cl)c2F)n1-c1ccc(Cl)cc1 [compound 127]
Test F disease control rating (Septoria nodorum; [3]): 98% | Test J disease control rating [1, 3]: 100% | Test I disease control rating [2, 3]: 100% | Test D disease control rating (Alternaria solani; [3]): 100% | Test C disease control rating (Botrytis cinerea; [3]): 99% | Test G disease control rating (Septoria tritici; [3]): 95%

COc1ccc(F)c(-c2c(Cl)nc(C)n2-c2ccc(Cl)cc2)c1F [compound 122]
Test F disease control rating (Septoria nodorum; [3]): 100% | Test J disease control rating [1, 3]: 100% | Test I disease control rating [2, 3]: 100% | Test D disease control rating (Alternaria solani; [3]): 100% | Test C disease control rating (Botrytis cinerea; [3]): 98% | Test G disease control rating (Septoria tritici; [3]): 96%

CCc1nc(Cl)c(-c2c(F)cccc2F)n1-c1ccc(Cl)cc1 [compound 108]
Test F disease control rating (Septoria nodorum; 40 ppm (marked *)): 0* % | Test J disease control rating ([1]; 40 ppm (marked *)): 99* % | Test I disease control rating ([2]; 40 ppm (marked *)): 98* % | Test D disease control rating (Alternaria solani; 40 ppm (marked *)): 100* % | Test C disease control rating (Botrytis cinerea; 40 ppm (marked *)): 100* % | Test G disease control rating (Septoria tritici; 40 ppm (marked *)): 74* %

COc1cc(F)c(-c2c(Cl)nc(C)n2-c2ccc(C)cc2)c(F)c1 [compound 159]
Test F disease control rating (Septoria nodorum; 200 ppm, 0 = no control): 99% | Test J disease control rating ([1]; 200 ppm, 0 = no control): 100% | Test I disease control rating ([2]; 200 ppm, 0 = no control): 100% | Test D disease control rating (Alternaria solani; 200 ppm, 0 = no control): 100% | Test C disease control rating (Botrytis cinerea; 200 ppm, 0 = no control): 99% | Test G disease control rating (Septoria tritici; 200 ppm, 0 = no control): 97%

COc1cc(F)c(-n2cnc(Cl)c2-c2ccc(Cl)cc2)c(F)c1 [compound 277]
Test F disease control rating (Septoria nodorum; [4]): 0* % | Test J disease control rating [1, 4]: 94* % | Test I disease control rating [2, 4]: 88* % | Test D disease control rating (Alternaria solani; [4]): 0* % | Test C disease control rating (Botrytis cinerea; [4]): 99* % | Test G disease control rating (Septoria tritici; [4]): 89* %

COc1ccc(F)c(-c2c(Cl)ncn2-c2ccc(Cl)cc2)c1F [compound 112]
Test F disease control rating (Septoria nodorum; [3]): 89% | Test J disease control rating [1, 3]: 99% | Test I disease control rating [2, 3]: 99% | Test D disease control rating (Alternaria solani; [3]): 100% | Test C disease control rating (Botrytis cinerea; [3]): 99% | Test G disease control rating (Septoria tritici; [3]): 98%
